Results: US20230129359A1, “MUSCARINIC RECEPTOR 4 ANTAGONISTS AND METHODS OF USE” (Neurocrine Biosciences, Inc., priority 2020, published 2023)

Target: T1, human M4 receptor (Homo sapiens, UniProt P08173)
T1 construct: expressed in transfected cells; host or cells: CHO cells
T1 sequence (P08173 1-479): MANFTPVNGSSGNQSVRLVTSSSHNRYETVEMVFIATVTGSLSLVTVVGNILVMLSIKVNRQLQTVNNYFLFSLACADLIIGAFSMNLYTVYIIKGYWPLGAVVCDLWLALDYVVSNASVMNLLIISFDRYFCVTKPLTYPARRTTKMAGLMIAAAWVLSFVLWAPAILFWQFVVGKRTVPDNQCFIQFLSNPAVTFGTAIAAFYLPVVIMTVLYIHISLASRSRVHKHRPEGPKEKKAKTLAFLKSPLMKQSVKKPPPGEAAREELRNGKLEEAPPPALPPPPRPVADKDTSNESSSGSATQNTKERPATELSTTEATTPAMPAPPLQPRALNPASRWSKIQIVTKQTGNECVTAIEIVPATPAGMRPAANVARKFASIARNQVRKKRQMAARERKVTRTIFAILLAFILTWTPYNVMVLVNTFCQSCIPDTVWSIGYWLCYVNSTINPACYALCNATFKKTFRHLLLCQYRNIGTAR
Test: Radioligand ([3H]N-methylscopolamine) binding assay, membranes from CHO cells expressing human M4 receptor
Conditions: Ki against human M4 receptor; membranes from CHO cells; tritiated N-methylscopolamine 1.5 nM; read-out: K
Summary of the method: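 Ki values derive from displacement of tritiated N-methylscopolamine (1.5 nM) from human M4 receptor in CHO membranes. Membranes, radioligand and twelve-point compound series were incubated together at 37 °C for 90 minutes in pH 7.4 HEPES/NaCl/MgCl2/EDTA buffer. Rapid vacuum filtration over polyethylenimine-pretreated filters was followed by radioactivity counting.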

Row | SMILES | Ki
1 | C[C@@H]1CN(c2ccc(C(F)(F)F)cc2)C[C@@H](C)N1C(=O)NC1CC2(C1)CN(Cc1ccccc1)C2 [Compound 51, (2R,6R)-N-{2-benzyl-2-azaspiro[3.3]heptan-6-yl}-2,6-dimethyl-4-[4-(trifluoromethyl)phenyl]pipera-zine-1-carboxamide] | < 10 nM
2 | C[C@H]1CN(C(=O)OC2CC3(C2)CN(Cc2ccccc2)C3)CCN1c1ncc(C#N)cn1 [Compound 119, 2-benzyl-2-azaspiro[3.3]heptan-6-yl (3S)-4-(5-cyanopyrimidin-2-yl)-3-methylpiperazine-1-carboxylate] | 100 to 1000 nM
3 | C[C@@H]1CN(c2cnc3ccccc3n2)C[C@H](C)N1C(=O)OC1CC2(C1)CN(Cc1ccccc1)C2 [Compound 172, 2-benzyl-2-azaspiro[3.3]heptan-6-yl (2R,6S)-2,6-dimethyl-4-(quinoxalin-2-yl)piperazine-1-carboxylate] | 10 to 100 nM
4 | C[C@@H]1CN(c2ncc(C(F)(F)F)cn2)C[C@@H](C)N1C(=O)OC1(C(F)F)CC2(CN(Cc3ccccc3)C2)C1 [Compound 344, 2-benzyl-6-(difluoromethyl)-2-azaspiro[3.3]heptan-6-yl (2R,6R)-2,6-dimethyl-4-[5-(trifluoromethyl)pyrimidin-2-yl]piperazine-1-carboxylate] | 10 to 100 nM
5 | C[C@@H]1CN(c2nc3ccc(C(F)(F)F)cc3s2)C[C@H](C)N1C(=O)NC1CC2(C1)CN(Cc1ccccc1)C2 [Compound 216, (2R,6S)-N-{2-benzyl-2-azaspiro[3.3]heptan-6-yl}-2,6-dimethyl-4-[6-(trifluoromethyl)-1,3-benzothiazol-2-yl)piperazine-1-carboxamide] | < 10 nM
6 | COc1ccc2nc(N3C[C@@H](C)N(C(=O)NC4CC5(C4)CN(Cc4ccccc4)C5)C[C@@H]3C)cnc2c1 [Compound 222, (2R,5S)-N-{2-benzyl-2-azaspiro[3.3]heptan-6-yl}-4-(6-methoxyquinoxalin-2-yl)-2,5-dimethylpiperazine-1-carboxamide] | < 10 nM
7 | C[C@@H]1CN(c2ncc(C(F)(F)F)cn2)CCN1C(=O)NC1CC2(C1)CN(Cc1ccccc1)C2 [Compound 7, (2R)-N-{2-benzyl-2-azaspiro[3.3]heptan-6-yl}-2-methyl-4-[5-(trifluoromethyl)pyrimidin-2-yl]piperazine-1-carboxamide] | 10 to 100 nM
8 | C[C@@H]1CN(c2ccc(C(F)(F)F)nc2)C[C@H](C)N1C(=O)OC1CC2(C1)CN(Cc1ccccc1)C2 [Compound 191, 2-bnezyl-2-azaspiro[3.3]heptan-6-yl (2R,6S)-2,6-dimethyl-4-[6-(trifluoromethyl)pyridin-3-yl]piperazine-1-carboxylate] | 10 to 100 nM
9 | C[C@@H]1CN(c2ncc(C#N)cn2)C[C@H](C)N1C(=O)NC1CC2(C1)CN(Cc1ccc(Cl)cc1)C2 [Compound 251, (2R,6S)-N-{2-[(4-chlorophenyl)methyl]-2-azaspiro[3.3]heptan-6-yl}-4-(5-cyanopyrimidin-2-yl)-2,6-dimethylpiperazine-1-carboxamide] | 10 to 100 nM
10 | C[C@@H]1CN(c2ncc(C(F)(F)F)cn2)CCN1C(=O)OCC1CC2(C1)CN(Cc1ccccc1)C2 [Compound 133, {2-benzyl-2-azaspiro[3.3]heptan-6-yl}methyl (2R)-2-methyl-4-[5-(trifluoromethyl)pyrimidin-2-yl]piperazine-1-carboxylate] | 10 to 100 nM

Results, then the compound that gave them:

Row | Ki | SMILES
11 | 10 to 100 nM | C[C@@H]1CN(c2nc3cc(F)ccc3o2)[C@@H](C)CN1C(=O)OC1CC2(C1)CN(Cc1ccccc1)C2 [Compound 443, 2-benzyl-2-azaspiro[3.3]heptan-6-yl (2R,5S)-4-(5-fluoro-1,3-benzoxazol-2-yl)-2,5-dimethylpiperazine-1-carboxylate]
12 | 10 to 100 nM | C[C@@H]1CN(c2cnc(C(F)(F)F)cn2)C[C@H](C)N1C(=O)OC1CC2(C1)CN(Cc1ccc(Cl)cc1)C2 [Compound 479, 2-[(4-chlorophenyl)methyl]-2-azaspiro[3.3]heptan-6-yl (2R,6S)-2,6-dimethyl-4-[5-(trifluoromethyl)pyrazin-2-yl]piperazine-1-carboxylate]
13 | 10 to 100 nM | C[C@@H]1CN(c2cnc(C(F)(F)F)cn2)C[C@H](C)N1C(=O)OC1(C)CC2(CN(Cc3ccccc3)C2)C1 [Compound 353, 2-benzyl-6-methyl-2-azaspiro[3.3]heptan-6-yl (2R,6S)-2,6-dimethyl-4-[5-(trifluoromethyl)pyrazin-2-yl]piperazine-1-carboxylate]
14 | 10 to 100 nM | C[C@@H]1CN(c2cnc3cc(F)ccc3n2)[C@@H](C)CN1C(=O)OC1CC2(C1)CN(Cc1ccccc1)C2 [Compound 363, 2-benzyl-2-azaspiro[3.3]heptan-6-yl (2R,5S)-4-(6-fluoroquinoxalin-2-yl)-2,5-dimethylpiperazine-1-carboxylate]
15 | < 10 nM | CCCc1cnc(N2C[C@@H](C)N(C(=O)OC3CC4(C3)CN(Cc3ccccc3)C4)[C@@H](C)C2)nc1 [Compound 504, 2-benzyl-2-azaspiro[3.3]heptan-6-yl (2R,6S)-2,6-dimethyl-4-(5-propylpyrimidin-2-yl)piperazine-1-carboxylate]
16 | < 10 nM | C[C@@H]1CN(c2ncc(OCC3CC3)cn2)C[C@H](C)N1C(=O)OC1CC2(C1)CN(Cc1ccccc1)C2 [Compound 499, 2-benzyl-2-azaspiro[3.3]heptan-6-yl (2R,6S)-4-[5-(cyclopropylmethoxy)pyrimidin-2-yl]-2,6-dimethylpiperazine-1-carboxylate]
17 | 100 to 1000 nM | COc1ccc(N2C[C@@H](C)N(C(=O)OC3CC4(C3)CN(Cc3ccccc3)C4)[C@@H](C)C2)cc1 [Compound 524, 2-benzyl-2-azaspiro[3.3]heptan-6-yl (2R,6S)-4-(4-methoxyphenyl)-2,6-dimethylpiperazine-1-carboxylate]
18 | 10 to 100 nM | C[C@@H]1CN(c2nc3cc(C(F)(F)F)cnc3s2)C[C@@H](C)N1C(=O)OC1CC2(C1)CN(Cc1ccccc1)C2 [Compound 366, 2-benzyl-2-azaspiro[3.3]heptan-6-yl (2R,6R)-2,6-dimethyl-4-[6-(trifluoromethyl)-[1,3]thiazolo[5,4-b]pyridin-2-yl]piperazine-1-carboxylate]
19 | < 10 nM | C[C@@H]1CN(c2ncc3cc(F)ccc3n2)[C@@H](C)CN1C(=O)OC1CC2(C1)CN(Cc1ccccc1)C2 [Compound 484, 2-benzyl-2-azaspiro[3.3]heptan-6-yl (2R,5S)-4-(6-fluoroquinazolin-2-yl)-2,5-dimethylpiperazine-1-carboxylate]
20 | < 10 nM | C[C@@H]1CN(c2nc3ccc(C(F)(F)F)cc3s2)C[C@H](C)N1C(=O)OC1CC2(C1)CN(Cc1ccncc1)C2 [Compound 416, 2-(pyridin-4-ylmethyl)-2-azaspiro[3.3]heptan-6-yl (2R,6)S-2,6-dimethyl-4-[6-(trifluoromethyl)-1,3-benzothiazol-2-yl]piperazine-1-carboxylate]
21 | 100 to 1000 nM | C[C@@H]1CN(c2ncc3ccccc3n2)C[C@H](C)N1C(=O)OC1CC2(C1)CN(Cc1ccncc1)C2 [Compound 421, 2-(pyridin-4-ylmethyl)-2-azaspiro[3.3]heptan-6-yl (2R,6S)-2,6-dimethyl-4-(quinazolin-2-yl)piperazine-1-carboxylate]
22 | 10 to 100 nM | C[C@@H]1CN(c2ncc(C(F)(F)F)cn2)C[C@@H](C)N1C(=O)OC1(C)CC2(CN(Cc3ccccc3)C2)C1 [Compound 355, 2-benzyl-6-methyl-2-azaspiro[3.3]heptan-6-yl (2R,6R)-2,6-dimethyl-4-[5-(trifluoromethyl)pyrimidin-2-yl]piperazine-1-carboxylate]
